Reference: BindingDB's records for patent US11547697 (Millennium Pharmaceuticals, 2023)

Experiments:
[1] = molecular target: Phosphatidylinositol 4,5-bisphosphate 3-kinase catalytic subunit beta isoform (Homo sapiens, UniProt P42338); assay: Inhibition Assay of PI3K
[2] = molecular target: T1, Phosphatidylinositol 4,5-bisphosphate 3-kinase catalytic subunit delta isoform (Homo sapiens, UniProt O00329); assay: Inhibition Assay of PI3K
T1 sequence (O00329 whole entry): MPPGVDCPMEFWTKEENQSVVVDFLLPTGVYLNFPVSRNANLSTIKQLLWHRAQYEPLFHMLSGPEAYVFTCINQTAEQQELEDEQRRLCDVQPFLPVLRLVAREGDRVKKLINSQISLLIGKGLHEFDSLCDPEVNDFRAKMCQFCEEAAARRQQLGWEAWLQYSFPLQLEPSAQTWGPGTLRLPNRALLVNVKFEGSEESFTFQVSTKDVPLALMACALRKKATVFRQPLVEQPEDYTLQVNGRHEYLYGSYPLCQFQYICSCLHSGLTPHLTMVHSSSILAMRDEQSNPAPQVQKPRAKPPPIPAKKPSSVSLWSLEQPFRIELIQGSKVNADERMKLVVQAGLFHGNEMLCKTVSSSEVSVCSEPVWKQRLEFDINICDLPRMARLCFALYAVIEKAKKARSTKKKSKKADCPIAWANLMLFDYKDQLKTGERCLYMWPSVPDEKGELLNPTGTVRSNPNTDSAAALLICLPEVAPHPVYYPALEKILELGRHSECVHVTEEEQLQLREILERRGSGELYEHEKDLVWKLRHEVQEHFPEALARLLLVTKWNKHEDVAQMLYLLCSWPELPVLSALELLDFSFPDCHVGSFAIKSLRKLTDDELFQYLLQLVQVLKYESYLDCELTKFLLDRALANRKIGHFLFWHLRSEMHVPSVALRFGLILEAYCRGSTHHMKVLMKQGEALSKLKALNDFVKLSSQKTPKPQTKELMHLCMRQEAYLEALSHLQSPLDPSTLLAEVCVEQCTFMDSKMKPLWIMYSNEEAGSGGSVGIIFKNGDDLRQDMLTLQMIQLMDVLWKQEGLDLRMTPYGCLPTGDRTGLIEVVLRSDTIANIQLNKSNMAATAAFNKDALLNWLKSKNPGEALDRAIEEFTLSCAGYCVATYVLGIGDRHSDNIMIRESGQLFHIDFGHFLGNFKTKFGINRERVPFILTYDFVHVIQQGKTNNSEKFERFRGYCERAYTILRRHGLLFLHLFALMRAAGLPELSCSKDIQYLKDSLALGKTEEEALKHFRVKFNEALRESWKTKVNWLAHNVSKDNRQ

Sequence of Phosphatidylinositol 4,5-bisphosphate 3-kinase catalytic subunit beta isoform (P42338 whole entry, canonical isoform): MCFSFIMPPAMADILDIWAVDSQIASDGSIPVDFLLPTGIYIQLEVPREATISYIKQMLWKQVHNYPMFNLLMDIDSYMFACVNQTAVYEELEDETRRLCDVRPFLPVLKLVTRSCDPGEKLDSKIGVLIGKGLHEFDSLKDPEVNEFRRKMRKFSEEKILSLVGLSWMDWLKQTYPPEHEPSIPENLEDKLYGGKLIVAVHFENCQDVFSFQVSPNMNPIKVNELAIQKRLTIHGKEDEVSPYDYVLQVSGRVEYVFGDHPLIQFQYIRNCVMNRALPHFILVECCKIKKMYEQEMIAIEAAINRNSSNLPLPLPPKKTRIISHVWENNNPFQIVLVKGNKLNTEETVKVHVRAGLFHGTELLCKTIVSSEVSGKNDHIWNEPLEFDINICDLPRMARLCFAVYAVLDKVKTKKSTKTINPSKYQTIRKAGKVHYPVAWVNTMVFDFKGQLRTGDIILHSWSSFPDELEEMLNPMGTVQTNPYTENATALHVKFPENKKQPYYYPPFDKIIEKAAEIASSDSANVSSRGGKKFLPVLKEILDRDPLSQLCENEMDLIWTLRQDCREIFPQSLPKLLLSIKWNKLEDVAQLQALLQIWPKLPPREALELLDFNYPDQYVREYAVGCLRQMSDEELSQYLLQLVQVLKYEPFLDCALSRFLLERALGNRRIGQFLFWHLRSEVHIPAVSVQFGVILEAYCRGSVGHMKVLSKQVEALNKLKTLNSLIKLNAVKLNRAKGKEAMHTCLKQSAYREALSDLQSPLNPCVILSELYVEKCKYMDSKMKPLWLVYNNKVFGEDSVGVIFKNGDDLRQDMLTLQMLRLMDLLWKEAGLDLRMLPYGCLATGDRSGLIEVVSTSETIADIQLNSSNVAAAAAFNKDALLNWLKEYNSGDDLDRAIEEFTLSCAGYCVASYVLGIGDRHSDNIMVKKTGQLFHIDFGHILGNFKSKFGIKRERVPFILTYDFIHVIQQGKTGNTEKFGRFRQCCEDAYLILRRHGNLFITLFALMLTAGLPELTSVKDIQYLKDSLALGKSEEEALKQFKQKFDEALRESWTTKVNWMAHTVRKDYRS

IC50 [1]	IC50 [2]	Compound
> 10 µM	> 10 µM	Nc1nc2cc(-c3ccc4ncc(C(=O)N5CCC(F)(F)CC5)n4c3)ccc2o1 [US11547697, Compound 501]
> 10 µM	> 10 µM	COc1ccc(-c2ccc3ncc(C(=O)N4CCOCC4)n3c2)cc1NS(=O)(=O)c1ccccc1 [US11547697, Compound 455]
> 10 µM	> 10 µM	Nc1nc2cc(-c3ccc4ncc(C(=O)N5CCC(F)CC5)n4c3)ccc2o1 [US11547697, Compound 503]
> 10 µM	> 10 µM	CO[C@@H]1CCN(C(=O)c2cnc3ccc(-c4ccc5oc(N)nc5c4)cn23)C1 [US11547697, Compound 464]
> 10 µM	> 10 µM	CNc1noc2cc(-c3ccc4ncc(C(=O)N5CCOCC5)n4c3)ccc12 [US11547697, Compound 486]
> 10 µM	> 10 µM	Nc1nc2cc(-c3ccc4ncc(C(=O)N5CCC6(C5)OCCO6)n4c3)ccc2o1 [US11547697, Compound 499]
> 10 µM	–	O=C(c1cnc2ccc(-c3cccc(NS(=O)(=O)c4ccc(F)cc4F)c3)cn12)N1CCOCC1 [US11547697, Compound 454]
> 10 µM	> 10 µM	Nc1nc2cc(-c3ccc4ncc(C(=O)N5CC[C@H](N6CCOCC6)C5)n4c3)ccc2o1 [US11547697, Compound 465]
> 10 µM	> 10 µM	Cc1cc(-c2ccc3oc(N)nc3c2)cn2c(C(=O)N3CCOCC3)cnc12 [US11547697, Compound 448]
> 10 µM	> 10 µM	O=C(c1cnc2ccc(-c3ccc(Cl)c(NS(=O)(=O)c4ccccc4)c3)cn12)N1CCOCC1 [US11547697, Compound 459]
> 10 µM	> 10 µM	O=C(c1cnc2ccc(-c3cccc(NS(=O)(=O)c4ccccc4)c3)cn12)N1CCOCC1 [US11547697, Compound 453]
> 10 µM	> 10 µM	Nc1nc2cc(-c3ccc4ncc(C(=O)N5CCC(N6CC(F)(F)C6)C5)n4c3)ccc2o1 (configuration not stated) [US11547697, Compound 498]
> 10 µM	–	O=C(c1cnc2ccc(-c3cncc(NS(=O)(=O)c4ccc(F)cc4F)c3)cn12)N1CCOCC1 [US11547697, Compound 425]
> 10 µM	–	Nc1nc2cc(-c3ccc4ncc(C(=O)N5CC[C@@H](F)C5)n4c3)ccc2o1 [US11547697, Compound 475]
> 10 µM	> 10 µM	Nc1nc2cc(-c3ccc4ncc(N5CCN(CC(F)(F)F)CC5)nc4c3)ccc2o1 [US11547697, Compound 395]
> 10 µM	–	O=C(c1cnc2ccc(-c3cncc(NS(=O)(=O)c4ccccc4)c3)cn12)N1CCOCC1 [US11547697, Compound 424]

The remaining lines, values behind:

Compound	IC50 [1]	IC50 [2]
CC(C)n1cnc2ccc(-c3ccc4oc(N)nc4c3)cc2c1=O [US11547697, Compound 206]	> 10 µM	> 10 µM
CCN1CCN(C(=O)c2cnc3ccc(-c4ccc5oc(N)nc5c4)cn23)CC1 [US11547697, Compound 141]	> 10 µM	> 10 µM
Nc1nc2cc(-c3ccc4ncc(-c5cccnc5)nc4c3)ccc2o1 [US11547697, Compound 76]	> 10 µM	> 10 µM
Nc1nc2cc(-c3c[nH]c4nccc(-c5ccncc5)c34)ccc2o1 [US11547697, Compound 25]	> 10 µM	> 10 µM
Cc1ccn(C2CCN(C(=O)c3cnc4ccc(-c5ccc6oc(N)nc6c5)cn34)CC2)n1 [US11547697, Compound 297]	> 10 µM	> 10 µM
Nc1nc2cc(-c3ccc4ncc(C(=O)N5CC5)n4c3)ccc2o1 [US11547697, Compound 340]	> 10 µM	> 10 µM
N#Cc1cnc2ccc(-c3ccc4oc(N)nc4c3)cc2c1 [US11547697, Compound 93]	> 10 µM	> 10 µM
CC(=O)N1CCN(C(=O)c2cnc3ccc(-c4ccc5oc(N)nc5c4)cn23)CC1 [US11547697, Compound 113]	> 10 µM	> 10 µM
NC(=O)[C@@H]1CCCN1C(=O)C1CN(c2cnc3ccc(-c4ccc5oc(N)nc5c4)cc3n2)C1 [US11547697, Compound 283]	> 10 µM	> 10 µM
Nc1nc2cc(-c3ccc4ncn(C5CC5)c(=O)c4c3)ccc2o1 [US11547697, Compound 254]	> 10 µM	> 10 µM
Cc1ccn(C2CCN(c3cnc4ccc(-c5ccc6oc(N)nc6c5)cc4n3)CC2)n1 [US11547697, Compound 223]	> 10 µM	> 10 µM
Nc1ncnc2ccc(-c3ccc4nccc(-c5ccncc5)c4c3)cc12 [US11547697, Compound 8]	> 10 µM	–
Nc1ccc2cc(-c3ccc4nccc(-c5ccncc5)c4c3)ccc2n1 [US11547697, Compound 5]	> 10 µM	–
Cc1cn(-c2cnc3ccc(-c4ccc5oc(N)nc5c4)cc3n2)cn1 [US11547697, Compound 177]	> 10 µM	> 10 µM
Nc1nc2cc(-c3ccc4ncc(N5CCS(=O)(=O)CC5)nc4c3)ccc2o1 [US11547697, Compound 98]	> 10 µM	> 10 µM
Nc1nc2ccc(-c3ccc4ncc(N5CCOCC5)nc4c3)cc2s1 [US11547697, Compound 114]	> 10 µM	> 10 µM
Nc1nc2cc(-c3ccc4ncc(C(=O)Nc5cccnc5)n4c3)ccc2o1 [US11547697, Compound 190]	> 10 µM	–
Nc1nc2cc(-c3cc4nccc(-c5ccncc5)c4s3)ccc2o1 [US11547697, Compound 14]	> 10 µM	> 10 µM
Nc1nc2cc(-c3ccc4ncc(N5CCNCC5=O)nc4c3)ccc2o1 [US11547697, Compound 389]	> 10 µM	> 10 µM
Nc1nc2cc(-c3ccc4ncc(C(=O)N5C6CCC5COC6)n4c3)ccc2o1 [US11547697, Compound 480]	> 10 µM	–
Cc1ccc(-c2cnc3ccc(-c4ccc5oc(N)nc5c4)cc3n2)cn1 [US11547697, Compound 194]	> 10 µM	> 10 µM
Nc1nc2cc(-c3ccc4ncc(C(=O)N5CCS(=O)(=O)CC5)n4c3)ccc2o1 [US11547697, Compound 107]	> 10 µM	> 10 µM
Cc1c(-c2ccc3oc(N)nc3c2)ccc2ncc(N3CC(N4CCNCC4)C3)nc12 [US11547697, Compound 386]	> 10 µM	> 10 µM
CN1CCN(C(=O)c2cnc3ccc(-c4ccc5oc(N)nc5c4)nn23)CC1 [US11547697, Compound 104]	> 10 µM	> 10 µM
NC(=O)[C@H]1CCCN1C(=O)c1cnc2ccc(-c3ccc4oc(N)nc4c3)cn12 [US11547697, Compound 260]	> 10 µM	> 10 µM
Nc1nc2cc(-c3ccc4ncc(N5CCN(C(=O)C6(N)CC6)CC5)nc4c3)ccc2o1 [US11547697, Compound 226]	> 10 µM	–
Nc1noc2ccc(-c3ccc4nccc(-c5ccncc5)c4c3)cc12 [US11547697, Compound 18]	> 10 µM	> 10 µM
Nc1nc2cc(-c3ccc4ncc(N5CCC(n6cccn6)CC5)nc4c3)ccc2o1 [US11547697, Compound 337]	> 10 µM	> 10 µM
C[C@@H]1CN(c2cnc3ccc(-c4ccc5oc(N)nc5c4)cc3n2)C[C@H](C)O1 [US11547697, Compound 132]	> 10 µM	> 10 µM
CS(=O)(=O)N1CCN(C(=O)c2cnc3ccc(-c4ccc5oc(N)nc5c4)cn23)CC1 [US11547697, Compound 112]	> 10 µM	–
